Measured values: patent US20250382344A1, “Soluble GLP1/GIP/NPY2 Receptor Triple Agonists” (Boehringer Ingelheim International GmH, priority 2024, published 2025)
Read-outs that look alike come from different tables or passages of the source.

Experiments:
hNPY2R = target: T1, hNPY2R (Homo sapiens, UniProt P49146); assay: hNPY2R CreLuc assay in 0.5% and 100% plasma (HEK-293 CRE-luciferase reporter cells); format: cell-based; details: 100% human plasma, HEK-293 reporter cells, read-out: hNPY2R 100% hP
T1 construct: expressed in transfected cells; host or cells: HEK-293 CRE-luciferase reporter cells
T1 sequence (P49146 1-381): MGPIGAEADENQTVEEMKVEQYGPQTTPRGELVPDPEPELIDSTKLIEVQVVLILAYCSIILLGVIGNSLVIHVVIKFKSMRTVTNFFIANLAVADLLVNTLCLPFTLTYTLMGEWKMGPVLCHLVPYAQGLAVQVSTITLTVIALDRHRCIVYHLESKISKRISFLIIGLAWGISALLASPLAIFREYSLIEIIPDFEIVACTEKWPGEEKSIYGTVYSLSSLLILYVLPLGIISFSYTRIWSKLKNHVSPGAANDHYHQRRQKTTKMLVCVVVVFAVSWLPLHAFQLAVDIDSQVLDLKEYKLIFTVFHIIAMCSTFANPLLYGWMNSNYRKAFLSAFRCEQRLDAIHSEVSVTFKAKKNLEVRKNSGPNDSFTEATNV
Source text: CHO and HEK-293 recombinant cell lines express a luciferase reporter gene under control of the CAMP responsive element (CRE). As a second recombinant protein the GLP-1 and NPY2 receptors were expressed in the reporter gene HEK cells, and the GIP receptor was expressed in the reporter gene CHO cells, respectively. Stimulation of these recombinant cells with an agonist leads to an increase of intracellular CAMP levels. In the presence of CAMP, the transcription factor CRE binding protein (CREB) binds to the CRE and to the CREB binding protein (CBP), which leads to transcription of the luciferase reporter gene. Peptides upon serial-dilution in 100% DMSO were transferred into 384-well assay plates with 5 μl pre-dispensed assay buffer (1×HBSS, 20 mM HEPES, pH7.4 supplemented with 0.5% human plasma) using acoustic dispensing on a Labcyte ECHO. Cryo-preserved transgenic reporter gene cells were thawed in assay buffer. 20 μl (10.000 cells/well) were added to the plate with the peptides and incubated for 4 hours at 37° C. in a humidified incubator. Following incubation, assay plates are equilibrated to room temperature, followed by addition of 25 μl of Bright-Glo™ Luciferase reagent, incubation at room temperature for 10 minutes and analysis of luminescence (Envision Reader). […] EC50 values were calculated by non-linear regression using sigmoid concentration-response with variable slope.
The same assays were run in the presence of 100% plasma with no additional buffer constituents.

hGIPR = target: T2, hGIPR (Homo sapiens, UniProt P48546); assay: hGIPR CreLuc assay in 0.5% and 100% plasma (CHO CRE-luciferase reporter cells); format: cell-based
T2 construct: expressed in transfected cells; host or cells: CHO CRE-luciferase reporter cells
T2 sequence (P48546 22-466): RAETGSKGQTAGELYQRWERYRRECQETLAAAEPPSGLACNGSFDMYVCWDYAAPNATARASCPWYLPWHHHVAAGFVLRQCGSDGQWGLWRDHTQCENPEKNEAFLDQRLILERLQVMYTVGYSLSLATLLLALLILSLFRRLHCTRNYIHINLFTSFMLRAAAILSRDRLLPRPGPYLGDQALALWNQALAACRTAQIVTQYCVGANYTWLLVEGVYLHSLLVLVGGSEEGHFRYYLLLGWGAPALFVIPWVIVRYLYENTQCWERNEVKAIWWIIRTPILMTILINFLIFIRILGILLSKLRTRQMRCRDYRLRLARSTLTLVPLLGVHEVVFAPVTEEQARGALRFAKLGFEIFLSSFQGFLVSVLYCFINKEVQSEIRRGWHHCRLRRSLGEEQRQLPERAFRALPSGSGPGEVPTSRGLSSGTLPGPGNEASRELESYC

[1] = Solubility in 0.1 M phosphate buffer at pH 7; format: physicochemical; details: 0.1 M phosphate buffer at pH 7, 10 mg/mL final peptide concentration, shaking 2 hours at room temperature, peptides as TFA-salts; measured sample pH 6.5-7.0
[2] = 0.5% human plasma, read-out: hGIPR 0.5% hP

EC50 (hNPY2R) [nM]	EC50 (hGIPR; [2]) [nM]	solubility at 2 h [1] [µg/mL]	EC50 (hGIPR; 100% human plasma, read-out: hGIPR 100% hP) [nM]	Compound
136	1.7	3100		CC[C@H](C)[C@H](NC(=O)[C@H](CC(C)C)NC(=O)[C@H](Cc1c[nH]cn1)NC(=O)[C@H](CCCNC(=N)N)NC(=O)[C@@H](NC(=O)[C@H](Cc1ccccc1)NC(=O)[C@H](C)NC(=O)C(C)(C)NC(=O)[C@H](CCC(N)=O)NC(=O)[C@H](C)NC(=O)[C@H](CCC(N)=O)NC(=O)[C@H](CCCCN)NC(=O)[C@H](CCC(=O)O)NC(=O)[C@H](CC(C)C)NC(=O)C(C)(C)NC(=O)[C@@H](NC(=O)[C@H](CO)NC(=O)[C@H](Cc1ccc(O)cc1)NC(=O)[C@H](CC(=O)O)NC(=O)[C@H](CO)NC(=O)[C@@H](NC(=O)[C@H](Cc1ccccc1)NC(=O)[C@@H](NC(=O)CNC(=O)[C@H](CCC(=O)O)NC(=O)C(C)(C)NC(=O)[C@@H](N)Cc1ccc(O)cc1)[C@@H](C)O)[C@@H](C)O)[C@@H](C)CC)C(C)C)C(=O)N[C@@H](CC(N)=O)C(=O)N[C@@H](CCCCNC(=O)[C@@H](N)CCCCNC(=O)CC[C@H](NC(=O)CC[C@H](NC(=O)CC[C@H](NC(=O)CC[C@H](NC(=O)CC[C@H](NC(=O)CC[C@H](NC(=O)CCCCCCCCCCCCCCCCC(=O)O)C(=O)O)C(=O)O)C(=O)O)C(=O)O)C(=O)O)C(=O)O)C(=O)N[C@@H](Cc1c[nH]c2ccccc12)C(=O)N[C@H](C(=O)N[C@@H](CCCNC(=N)N)C(=O)N[C@@H](CCC(N)=O)C(=O)N[C@@H](CCCNC(=N)N)C(=O)N[C@@H](Cc1ccc(O)cc1)C(N)=O)[C@@H](C)O [Compound 172, Y-Aib-E-G-T-F-T-S-D-Y-S-I-Aib-L-E-K-Q-A-Q-Aib-A-F-V-R-H-L-I-N-K(1,3)-W-T-R-Q-R-Y-NH2.C18DA-gGlu-gGlu-gGlu-gGlu-gGlu-gGlu-eLys(1,2)]
141	0.2	4900	8	CC[C@H](C)[C@H](NC(=O)[C@H](CC(C)C)NC(=O)[C@H](Cc1c[nH]cn1)NC(=O)[C@H](CCCNC(=N)N)NC(=O)[C@@H](NC(=O)[C@H](Cc1ccccc1)NC(=O)[C@H](C)NC(=O)C(C)(C)NC(=O)[C@H](CCC(N)=O)NC(=O)[C@H](C)NC(=O)[C@H](CCC(N)=O)NC(=O)[C@H](CCCCN)NC(=O)[C@H](CCC(=O)O)NC(=O)[C@H](CC(C)C)NC(=O)C(C)(C)NC(=O)[C@@H](NC(=O)[C@H](CO)NC(=O)[C@H](Cc1ccc(O)cc1)NC(=O)[C@H](CC(=O)O)NC(=O)[C@H](CO)NC(=O)[C@@H](NC(=O)[C@H](Cc1ccccc1)NC(=O)[C@@H](NC(=O)CNC(=O)[C@H](CCC(=O)O)NC(=O)C(C)(C)NC(=O)[C@@H](N)Cc1ccc(O)cc1)[C@@H](C)O)[C@@H](C)O)[C@@H](C)CC)C(C)C)C(=O)N[C@@H](CC(N)=O)C(=O)N[C@@H](CCCCNC(=O)COCCOCCNC(=O)CC[C@H](NC(=O)CC[C@H](NC(=O)CC[C@H](NC(=O)CC[C@H](NC(=O)CC[C@H](NC(=O)CCCCCCCCCCCCCCCCC(=O)O)C(=O)O)C(=O)O)C(=O)O)C(=O)O)C(=O)O)C(=O)NC(C)(C)C(=O)N[C@H](C(=O)N[C@@H](CCCNC(=N)N)C(=O)N[C@@H](CCC(N)=O)C(=O)N[C@@H](CCCNC(=N)N)C(=O)N[C@@H](Cc1ccc(O)cc1)C(N)=O)[C@@H](C)O [Compound 140, Y-Aib-E-G-T-F-T-S-D-Y-S-I-Aib-L-E-K-Q-A-Q-Aib-A-F-V-R-H-L-I-N-K(1,3)-Aib-T-R-Q-R-Y-NH2.C18DA-gGlu-gGlu-gGlu-gGlu-gGlu-OEG(1,2)]
141	0.6	4300		CC[C@H](C)[C@H](NC(=O)[C@H](CC(C)C)NC(=O)[C@H](Cc1c[nH]cn1)NC(=O)[C@H](CCCNC(=N)N)NC(=O)[C@@H](NC(=O)[C@H](Cc1ccccc1)NC(=O)[C@H](C)NC(=O)C(C)(C)NC(=O)[C@H](CCC(N)=O)NC(=O)[C@H](C)NC(=O)[C@H](CCC(N)=O)NC(=O)[C@H](CCCCN)NC(=O)[C@H](CCC(=O)O)NC(=O)[C@H](CC(C)C)NC(=O)C(C)(C)NC(=O)[C@@H](NC(=O)[C@H](CO)NC(=O)[C@H](Cc1ccc(O)cc1)NC(=O)[C@H](CC(=O)O)NC(=O)[C@H](CO)NC(=O)[C@@H](NC(=O)[C@H](Cc1ccccc1)NC(=O)[C@@H](NC(=O)CNC(=O)[C@H](CCC(=O)O)NC(=O)C(C)(C)NC(=O)[C@@H](N)Cc1ccc(O)cc1)[C@@H](C)O)[C@@H](C)O)[C@@H](C)CC)C(C)C)C(=O)N[C@@H](CC(N)=O)C(=O)N[C@@H](CCCCNC(=O)CC[C@H](NC(=O)CC[C@H](NC(=O)CC[C@H](NC(=O)CC[C@H](NC(=O)CC[C@H](NC(=O)CC[C@H](NC(=O)CC[C@H](NC(=O)CCCCCCCCCCCCCCCCC(=O)O)C(=O)O)C(=O)O)C(=O)O)C(=O)O)C(=O)O)C(=O)O)C(=O)O)C(=O)NC(C)(C)C(=O)N[C@H](C(=O)N[C@@H](CCCNC(=N)N)C(=O)N[C@@H](CCC(N)=O)C(=O)N[C@@H](CCCNC(=N)N)C(=O)N[C@@H](Cc1ccc(O)cc1)C(N)=O)[C@@H](C)O [Compound 38, Y-Aib-E-G-T-F-T-S-D-Y-S-I-Aib-L-E-K-Q-A-Q-Aib-A-F-V-R-H-L-I-N-K(1,3)-Aib-T-R-Q-R-Y-NH2.C18DA-gGlu-gGlu-gGlu-gGlu-gGlu-gGlu-gGlu(1,2)]
119	0.9	4500		CC[C@H](C)[C@H](NC(=O)[C@H](CC(C)C)NC(=O)[C@H](Cc1c[nH]cn1)NC(=O)[C@H](CCCNC(=N)N)NC(=O)[C@@H](NC(=O)[C@H](Cc1ccccc1)NC(=O)[C@H](CCC(=O)O)NC(=O)C(C)(C)NC(=O)[C@H](CCC(N)=O)NC(=O)[C@H](C)NC(=O)[C@H](CCC(N)=O)NC(=O)[C@H](CCCCN)NC(=O)[C@H](CCC(=O)O)NC(=O)[C@H](CC(C)C)NC(=O)C(C)(C)NC(=O)[C@@H](NC(=O)[C@H](CO)NC(=O)[C@H](Cc1ccc(O)cc1)NC(=O)[C@H](CC(=O)O)NC(=O)[C@H](CO)NC(=O)[C@@H](NC(=O)[C@H](Cc1ccccc1)NC(=O)[C@@H](NC(=O)CNC(=O)[C@H](CCC(=O)O)NC(=O)C(C)(C)NC(=O)[C@@H](N)Cc1ccc(O)cc1)[C@@H](C)O)[C@@H](C)O)[C@@H](C)CC)C(C)C)C(=O)N[C@@H](CC(N)=O)C(=O)N[C@@H](CCCCNC(=O)[C@@H](N)CCCCNC(=O)CC[C@H](NC(=O)CC[C@H](NC(=O)CC[C@H](NC(=O)CC[C@H](NC(=O)CC[C@H](NC(=O)CC[C@H](NC(=O)CCCCCCCCCCCCCCCCCCC(=O)O)C(=O)O)C(=O)O)C(=O)O)C(=O)O)C(=O)O)C(=O)O)C(=O)N[C@@H](CC(C)C)C(=O)N[C@H](C(=O)N[C@@H](CCCNC(=N)N)C(=O)N[C@@H](CCC(N)=O)C(=O)N[C@@H](CCCNC(=N)N)C(=O)N[C@@H](Cc1ccc(O)cc1)C(N)=O)[C@@H](C)O [Compound 39, Y-Aib-E-G-T-F-T-S-D-Y-S-I-Aib-L-E-K-Q-A-Q-Aib-E-F-V-R-H-L-I-N-K(1,3)-L-T-R-Q-R-Y-NH2.C20DA-gGlu-gGlu-gGlu-gGlu-gGlu-gGlu-eLys(1,2)]
